# Data from PMC10532956, “Age and Sex-Related Differences in Teicoplanine Isoform Concentrations in SARS-CoV-2 Patients” (Life, 2023).
# Conditions: male, human, in vivo, iv
smiles,measurement,value
CC(=O)N[C@H]1[C@H](O[C@@H]2c3ccc(c(Cl)c3)Oc3cc4cc(c3O)Oc3ccc(cc3Cl)C[C@H]3NC(=O)[C@H](N)c5ccc(O)c(c5)Oc5cc(O)cc(c5)[C@H](NC3=O)C(=O)N[C@H]4C(=O)N[C@H]3C(=O)N[C@@H]2C(=O)N[C@H](C(=O)O)c2cc(O)cc(O[C@H]4O[C@H](CO)[C@@H](O)[C@H](O)[C@@H]4O)c2-c2cc3ccc2O)O[C@H](CO)[C@@H](O)[C@@H]1O [A3-1],"isoform plasma concentration, median",0.18 µg/mL
